Experimental data taken from patent US20090104171A1, “Metabolic Enhancement Therapy” (priority 2007, published 2009).

Legend:
[1] = oral supplementation, patient groups; cited from earlier work
[2] = tested on: NMDA glycine site; details: in vivo; cited from earlier work
[3] = cited from earlier work
[4] = Case study Example 2: person with moderately functioning autism; type: in vivo, human; details: autistic person; for alleviation of behavioral symptoms: complete formulation
From the text: Person diagnosed with moderately functioning autism. Subject's behaviors were noteworthy for acute social withdrawal, pronounced language deficit, obsessive compulsive behaviors, acute anxiety attacks, aggression, hyperactivity, loss of concentration, fear and panic disorder, hyperactivity, depression, sleep deficit and acoustic hypersensitivity. Subject experienced loss of appetite and was underweight, although growth and sexual development was not stunted. […]

[5] = tested on: yeasts and yeast-like fungi; details: cited from earlier work
[6] = tested on: bacteria, protozoa or viruses; details: cited from earlier work
[7] = oral; cited from earlier work
[8] = Case study Example 3: person with schizophrenia; details: for relief of symptoms (anxiety, obsessive compulsive behavior, psychosis): schizophrenic, formulation given while remaining on clozapine and lithium
From the text: Person diagnosed with schizophrenia. Hospitalized several times suffering from acute psychotic attack with hallucinations and paranoia. Treated with many typical and atypical antipsychotic drugs. […] Over the years, several diagnoses were given, including bipolar disorder, obsessive-compulsive disorder, affective disorder, and combinations thereof. Medications have included lithium, olanzapine, prozac, and several sleep medications. […] Patient went through years of treatment programs and weekly psychiatric sessions. Although they managed (with extreme difficulty) to obtain BA and MA degrees, paranoia and anxiety prevented them from working. Recent history. Patient has been on an atypical antipsychotic (clozapine) and high doses of lithium carbonate for the past 2 years. […] Patient started on Metabolic Enhancement Therapy with the disclosed formulation, while remaining on clozapine and lithium.

[9] = Case study Example 4: person with acute anxiety disorder and depression; details: 2 years of treatment
[10] = in vivo; cited from earlier work

For `N[C@@H](Cc1c[nH]c2ccc(O)cc12)C(=O)O` [5-hydroxytryptophan], the “effect on depression in clinical trials” value [1] is listed as “only minor signs of efficacy”.

For `N[C@@H]1CONC1=O` [D-cycloserine], the “extinction of conditioned fear” value [2] is listed as “augment the extinction of conditioned fear”.

For `O=C(O)c1cccnc1` [Niacin], the “effects at pharmacologic doses” value ([3]; 2-4 g/day) is given as “vasodilation (flushing reaction), a marked decrease in circulation fatty acids, cholesterol and lipoproteins, and an elevation of serum glucose and uric acid” and the “dose without reported toxicity” value ([3]; in vivo) is given as “up to 50 mg/day”.

In the case of `C[C@@H]1[C@H](O)[C@@H](C)/C=C/C=C/CC/C=C/C=C/C=C/C=C/C(O[C@H]2O[C@H](C)[C@@H](O)[C@H](N)[C@@H]2O)CC2O[C@](O)(CC(O)C(O)CCC(O)CC(O)CC(O)CC(=O)O[C@H]1C)CC(O)C2C(=O)O` (some centres unmarked) [Nystatin], the “control of chronic intestinal yeast infections” value [4] is given as “effectively controlled yeast infections”, the antifungal activity [5] is given as “both fungistatic and fungicidal” and the “activity against bacteria, protozoa or viruses” value [6] is given as “no activity”. For the same compound, the gastrointestinal absorption [7] was “insignificant” and the “tolerability / toxicity in words” value ([3]; in vivo) was “generally well tolerated by all age groups”.

For `CNCCC(Oc1ccc(C(F)(F)F)cc1)c1ccccc1` (centres unmarked) [Prozac], the “side effects induced by medication” value ([8]; in vivo) was “induce tremors, rigidity, weight gain and diabetes”, the “relief of symptoms (anxiety, obsessive compulsive behavior, psychosis)” value [8] was “None provided relief of symptoms” and the side effects [9] was “negative side effects”.

In the case of `C[S+](CC[C@H](N)C(=O)O)C[C@H]1O[C@@H](n2cnc3c(N)ncnc32)[C@H](O)[C@@H]1O` (some centres unmarked) [S-adenosyl methionine (SAMe), S-adenosyl methionine], the “effect on depression in clinical trials” value [1] is listed as “effective treatment for depression”.

For `Cc1ncc(C[n+]2csc(CCO)c2C)c(N)n1` [Vitamin B1, Thiamine], the “tolerability / toxicity in words” value ([3]; in vivo) is given as “toxicities are very rare”.

For `CC(=O)O[C@H](CC(=O)[O-])C[N+](C)(C)C` [acetyl-L-carnitine], the “effect on depression in clinical trials” value [1] is listed as “effective in relieving depression”.

For `NCC(=O)O` [glycine], the “effect on depression in clinical trials” value [1] is listed as “useful in the treatment of certain forms of bipolar depression”.

With `O=C([O-])[O-].[Li+].[Li+]` [lithium carbonate] the “relief of symptoms (anxiety, obsessive compulsive behavior, psychosis)” value [8] was “Obsessive-compulsive behavior progressively deteriorated”.

In the case of `O=C([O-])c1cc(=O)[nH]c(=O)[nH]1.[Li+]` [lithium orotate], the “increase of delivery of lithium to brain by complexing with orotate” value [10] is given as “over 100 fold”.

In the case of `[Li]` [lithium], the “side effects induced by medication” value ([8]; prior medications) is reported as “induce tremors, rigidity, weight gain and diabetes”.

With `Cc1cc2c(s1)Nc1ccccc1N=C2N1CCN(C)CC1` [olanzapine] the “side effects induced by medication” value ([8]; in vivo) was “induce tremors, rigidity, weight gain and diabetes”.

For `Cc1ncc(CO)c(CO)c1O` [vitamin B6, pyridoxine], the “effect on depression in clinical trials” value [1] is given as “helps alleviate depression associated with premenstrual syndrome” and the “dose reported to induce peripheral neuropathy” value ([3]; in vivo) is given as “exceed 2,000 mg/day”.

For amoxtatine, the “alleviation of behavioral symptoms” value [4] was “proved totally ineffective”.

For secretin, the “alleviation of behavioral symptoms” value [4] was “proved totally ineffective”.

In the case of vitamin B12, the “effect on depression in clinical trials” value [1] is given as “responsive to B12 supplementation”.

For vitamin E, the “dose without reported toxicity” value ([3]; in vivo) is listed as “up to 800 mg/day”.
